Test results taken from paper PMC5789826, “Structure-guided design of an Hsp90β N-terminal isoform-selective inhibitor” (Nature Communications, 2018).
Several values for one entry are separate records, joined by “and”; a condition that tells them apart may be missing. Identical values can stand only once. Like-named read-outs stand apart in the source and are kept apart here. One block for each compound: values may come before it.

How the values were obtained:
Hsp90β = Hsp90β (Homo sapiens, UniProt P08238); assay: Fluorescence polarization assay (FITC-GDA tracer displacement), Hsp90β; type: binding; conditions: for selectivity for Hsp90β: Hsp90β versus Hsp90α, from Kd values; for % Polarization to DMSO control: triplicate wells
Sequence of Hsp90β (P08238 whole entry): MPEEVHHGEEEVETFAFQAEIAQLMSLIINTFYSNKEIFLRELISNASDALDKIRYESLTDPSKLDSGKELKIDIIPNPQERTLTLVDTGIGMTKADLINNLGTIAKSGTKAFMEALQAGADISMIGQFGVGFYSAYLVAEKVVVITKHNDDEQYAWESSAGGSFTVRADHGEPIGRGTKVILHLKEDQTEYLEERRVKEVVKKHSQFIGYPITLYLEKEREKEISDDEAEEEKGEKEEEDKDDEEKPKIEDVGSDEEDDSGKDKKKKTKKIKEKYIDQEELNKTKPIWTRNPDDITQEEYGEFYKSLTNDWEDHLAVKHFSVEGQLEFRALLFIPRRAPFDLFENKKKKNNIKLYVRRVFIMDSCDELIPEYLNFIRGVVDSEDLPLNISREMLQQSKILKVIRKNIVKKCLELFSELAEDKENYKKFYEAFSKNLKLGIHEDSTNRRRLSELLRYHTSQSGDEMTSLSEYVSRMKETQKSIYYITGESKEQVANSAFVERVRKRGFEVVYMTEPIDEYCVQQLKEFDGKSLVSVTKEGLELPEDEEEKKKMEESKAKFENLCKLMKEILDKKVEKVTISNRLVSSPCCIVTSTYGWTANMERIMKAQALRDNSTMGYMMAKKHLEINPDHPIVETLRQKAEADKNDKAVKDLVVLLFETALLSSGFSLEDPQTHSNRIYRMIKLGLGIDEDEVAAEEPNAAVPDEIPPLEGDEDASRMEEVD
Description: (§1) Compounds were tested in triplicate wells (1% DMSO final concentration). For each plate, wells containing buffer only (background), tracer in buffer only (low polarization control), and protein and tracer in buffer with 1% DMSO (high polarization control) were included. Plates were incubated at 4 °C with rocking for 24 h. […] Polarization values were correlated to % tracer bound and compound concentrations. The concentration at which the tracer was 50% displaced by the inhibitor was determined using Graphpad Prism.

Hsp90α = Hsp90α (Homo sapiens, UniProt P07900); assay: Fluorescence polarization assay (FITC-GDA tracer displacement), Hsp90α; type: binding; conditions: for % Polarization to DMSO control: triplicate wells
Description: as §1

[1] = fluorescence polarization, apparent Kd, read-out: Kd Hsp90β
[2] = fluorescence polarization, apparent Kd, read-out: Kd Hsp90α

Kd (Hsp90β): > 25000 nM
binding to Hsp90β (Hsp90β; at 10 μM): did not bind
Kd (Hsp90α): > 25000 nM
binding to Hsp90α (Hsp90α; at 10 μM): did not bind
SMILES: COCc1cc(O)c(C(=O)N2Cc3ccccc3C2)cc1C(C)C [Compound 3]

SMILES: CC(C)c1cc(C(=O)N2Cc3ccccc3C2)c(O)cc1CC#N [Compound 2]
Kd (Hsp90β): 970 nM
selectivity for Hsp90β (Hsp90β): ~ 2.5 fold
% Polarization to DMSO control (Hsp90β; Suppl Table 8, 2 0.1 μM): 90.36% and 90.17% and 91.52%
% Polarization to DMSO control (Hsp90β; Suppl Table 8, 2 0.5 μM): 65.62% and 68.90% and 70.45%
% Polarization to DMSO control (Hsp90β; Suppl Table 8, 2 1 μM): 47.25% and 50.54% and 49.96%
% Polarization to DMSO control (Hsp90β; Suppl Table 8, 2 5 μM): 12.84% and 16.90% and 23.47%
% Polarization to DMSO control (Hsp90β; Suppl Table 8, 2 10 μM): 4.14% and 8.59% and 10.52%
Kd (Hsp90α): 2280 ± 120 nM
% Polarization to DMSO control (Hsp90α; Suppl Table 9, 2 0.1 μM): 95.62% and 98.23% and 93.53%
% Polarization to DMSO control (Hsp90α; Suppl Table 9, 2 0.5 μM): 78.89% and 78.37% and 75.58%
% Polarization to DMSO control (Hsp90α; Suppl Table 9, 2 1 μM): 66.18% and 68.79% and 67.22%
% Polarization to DMSO control (Hsp90α; Suppl Table 9, 2 5 μM): 22.97% and 29.94%

SMILES: CC(C)c1cc(C(=O)N2Cc3ccc(F)cc3C2)c(O)c2cnoc12 [Compound 6b]
selectivity over Hsp90α and Grp94 (Hsp90β; Hsp90β versus Hsp90α and Grp94): ~ 50 fold
% Polarization to DMSO control (Hsp90β; Suppl Table 13, 6b 0.125 μM): 80.92% and 79.55% and 79.72%
% Polarization to DMSO control (Hsp90β; Suppl Table 13, 6b 0.5 μM): 44.66% and 45.17%
% Polarization to DMSO control (Hsp90β; Suppl Table 13, 6b 1 μM): 27.05% and 23.28% and 31.32%
Kd (Hsp90β; fluorescence polarization, apparent Kd, value in nM, read-out: Kd Hsp90β): 180 nM
Kd (Hsp90β; [1]): 440 nM
% Polarization to DMSO control (Hsp90α; Suppl Table 12, 6b 0.125 μM): 101. 64% and 98.69% and 98.03%
% Polarization to DMSO control (Hsp90α; Suppl Table 12, 6b 0.5 μM): 97.54% and 93.76% and 98.36%
% Polarization to DMSO control (Hsp90α; Suppl Table 12, 6b 1 μM): 98.19% and 97.05% and 96.39%
% Polarization to DMSO control (Hsp90α; Suppl Table 12, 6b 3 μM): 87.85% and 82.27% and 73.25%
% Polarization to DMSO control (Hsp90α; Suppl Table 12, 6b 10 μM): 66.68% and 53.88% and 63.89%
% Polarization to DMSO control (Hsp90α; Suppl Table 12, 6b 25 μM): 41.57% and 41.90% and 42.23%
% Polarization to DMSO control (Hsp90α; Suppl Table 12, 6b 75 μM): 20.07% and 24.50% and 20.73%
Kd (Hsp90α; [2]): 18200 nM

SMILES: CC(C)c1ccc(O)c(C(=O)N2Cc3ccccc3C2)c1 [Compound 1]
selectivity for Hsp90β (Hsp90β): ~ 2 fold
% Polarization to DMSO control (Hsp90β; Suppl Table 11, 1 0.5 μM): 68.22% and 73.53% and 68.55%
% Polarization to DMSO control (Hsp90β; Suppl Table 11, 1 1 μM): 60.93% and 62.75% and 64.41%
% Polarization to DMSO control (Hsp90β; Suppl Table 11, 1 5 μM): 23.80% and 23.30% and 19.99%
% Polarization to DMSO control (Hsp90β; Suppl Table 11, 1 10 μM): 15.34% and 18.00% and 10.37%
% Polarization to DMSO control (Hsp90β; Suppl Table 11, 1 25 μM): 12.53% and 4.40% and 5.73%
% Polarization to DMSO control (Hsp90β; Suppl Table 11, 1 50 μM): 5.73% and 5.90% and 4.40%
% Polarization to DMSO control (Hsp90β; Suppl Table 11, 1 100 μM): 8.22% and 4.90% and 9.38%
Kd (Hsp90β; [1]): 1630 nM
% Polarization to DMSO control (Hsp90α; Suppl Table 10, 1 0.5 μM): 84.59% and 83.37% and 82.16%
% Polarization to DMSO control (Hsp90α; Suppl Table 10, 1 1 μM): 70.63% and 71.84% and 71.69%
% Polarization to DMSO control (Hsp90α; Suppl Table 10, 1 5 μM): 31.78% and 33.90% and 37.85%
% Polarization to DMSO control (Hsp90α; Suppl Table 10, 1 10 μM): 22.83% and 17.67% and 25.25%
% Polarization to DMSO control (Hsp90α; Suppl Table 10, 1 25 μM): 16.45% and 15.39% and 18.58%
% Polarization to DMSO control (Hsp90α; Suppl Table 10, 1 50 μM): 11.45% and 12.05% and 8.56%
% Polarization to DMSO control (Hsp90α; Suppl Table 10, 1 100 μM): 9.47% and 8.26%
Kd (Hsp90α; [2]): 3210 nM

Kd (Hsp90β; Kd Hsp90β, fluorescence polarization, apparent Kd): 4270 nM
% Polarization to DMSO control (Hsp90β; Suppl Table 5, 5 1 μM): 73.89% and 76.47% and 73.55%
% Polarization to DMSO control (Hsp90β; Suppl Table 5, 5 5 μM): 48.11% and 44.50% and 46.91%
% Polarization to DMSO control (Hsp90β; Suppl Table 5, 5 10 μM): 27.82% and 30.40% and 31.26%
% Polarization to DMSO control (Hsp90β; Suppl Table 5, 5 25 μM): 13.21% and 21.12% and 17.17%
% Polarization to DMSO control (Hsp90β; Suppl Table 5, 5 50 μM): 21.98% and 21.29%
SMILES: CC(C)c1cc(C(=O)N2Cc3ccccc3C2)c(O)c(CO)c1O [Compound 5]

SMILES: CC(C)c1cc(C(=O)N2Cc3ccccc3C2)c(O)cc1C=O [Compound 4]
Kd (Hsp90α; Kd Hsp90α): 1550 nM and 1220 nM
